In US20240261296A1, “THERAPEUTIC MODALITIES FOR INHIBITING PANCREATIC BETA CELL IMPAIRMENT AND TREATING DIABETES” (Hadasit Medical Research Serices & Development Ltd., priority 2021, published 2024):

Test system: human islets β-cells
Experiment: glucose-stimulated insulin secretion and insulin content in palmitate-treated human islets
Type: cell-based
Conditions: palmitic acid 0.3 mM, 48 hr, donors 1 and 2
Protocol: Determination of glucose-stimulated insulin secretion (GSIS) and content: To determine acute insulin release in response to glucose stimulation, islets were washed with Krebs-Ringer bicarbonate buffer pH 7.4, containing 10 mM HEPES and 0.5% bovine serum albumin (KRBH), and pre-incubated for 2 hrs in the same buffer containing 3.3 mM glucose. The buffer was then discarded and replaced with fresh KRBH containing 3.3 mM glucose, and the islets incubated for 1 hour for basal insulin secretion, followed by additional 1 hour incubation in KRBH containing 16.7 mM glucose. The supernatants were collected, centrifuged at 900 rpm and insulin was determined by Rat or Human insulin radioimmunoassay (RIA) kits (Linco Research, St. Charles, MO) according to the Manufacturer's instructions. […] The acidic ethanol eluates were collected and the amount of insulin determined by ELISA.
ELISA Assay: Insulin was extracted from the intracellular storage granules in human islets cells using a lysis buffer (Ethanol-HCl). The extract was analysed by a specific ELISA (Mercodia) which is a solid phase two-site enzyme immunoassay based on the sandwich technique, in which two monoclonal antibodies are directed against separate antigenic determinants on the insulin molecule. […]

What does the source list for `CC[C@@H]1CC[C@H](C)N1C(=O)c1cccc(NS(=O)(=O)c2ccc(C)c(F)c2)c1` [Compound C13, N-(3-((2R,5S)-2-ethyl-5-methylpyrrolidine-1-carbonyl)phenyl)-3-fluoro-4-methylbenzenesulfonamide]?
restoring glucose-stimulated insulin secretion (16.7 mM glucose): more potent than L-798106; restoring insulin content: more potent than L-798106
